Each structure is given as a SMILES string.

This note sets out measurements from patent US20260184662A1, “COMPOSITE OF ACID AND SALT, AND PREPARATION METHOD THEREFOR” (NANJING NUTRABUILDING BIO-TECH CO., LTD., priority 2022, published 2026).

The nature of one data set: Stability of complexes at 30-80° C. Format: physicochemical. The note with it: 30° C. The text has this: For R-3-hydroxybutyric acid, potassium R-3-hydroxybutyrate, mixture of R-3-hydroxybutyric acid and potassium R-3-hydroxybutyrate, and R-3-hydroxybutyric acid·potassium R-3-hydroxybutyrate complex of Example 1, […]
For 3-hydroxybutyric acid, potassium 3-hydroxybutyrate, mixture of 3-hydroxybutyric acid and potassium 3-hydroxybutyrate, and 3-hydroxybutyric acid·potassium 3-hydroxybutyrate complex of Example 7, […]
For S-3-hydroxybutyric acid, potassium S-3-hydroxybutyrate, mixture of S-3-hydroxybutyric acid and potassium S-3-hydroxybutyrate, and S-3-hydroxybutyric acid·potassium S-3-hydroxybutyrate complex of Example 13, […]
For R-3-hydroxybutyric acid, calcium R-3-hydroxybutyrate, mixture of R-3-hydroxybutyric acid and calcium R-3-hydroxybutyrate, and R-3-hydroxybutyric acid·calcium R-3-hydroxybutyrate complex of Example 19, […]
For 3-hydroxybutyric acid, calcium 3-hydroxybutyrate, mixture of 3-hydroxybutyric acid and calcium 3-hydroxybutyrate, and 3-hydroxybutyric acid·calcium 3-hydroxybutyrate complex of Example 25, […]
For S-3-hydroxybutyric acid, calcium S-3-hydroxybutyrate, mixture of S-3-hydroxybutyric acid and calcium S-3-hydroxybutyrate, and S-3-hydroxybutyric acid·calcium S-3-hydroxybutyrate complex of Example 31, […]
For R-3-hydroxybutyric acid, magnesium R-3-hydroxybutyrate, mixture of R-3-hydroxybutyric acid and magnesium R-3-hydroxybutyrate, and R-3-hydroxybutyric acid·magnesium R-3-hydroxybutyrate complex of Example 37, […]
For 3-hydroxybutyric acid, magnesium 3-hydroxybutyrate, mixture of 3-hydroxybutyric acid and magnesium 3-hydroxybutyrate, and 3-hydroxybutyric acid·magnesium 3-hydroxybutyrate complex of Example 43, […]
For S-3-hydroxybutyric acid, magnesium S-3-hydroxybutyrate, mixture of S-3-hydroxybutyric acid and magnesium S-3-hydroxybutyrate, and S-3-hydroxybutyric acid·magnesium S-3-hydroxybutyrate complex of Example 49, […]
For R-3-hydroxypentanoic acid, sodium R-3-hydroxypentanoate, mixture of R-3-hydroxypentanoic acid and sodium R-3-hydroxypentanoate, and R-3-hydroxypentanoic acid·sodium R-3-hydroxypentanoate complex of Example 55, […]
For 3-hydroxypentanoic acid, sodium 3-hydroxypentanoate, mixture of 3-hydroxypentanoic acid and sodium 3-hydroxypentanoate, and 3-hydroxypentanoic acid·sodium 3-hydroxypentanoate complex of Example 61, […]
For S-3-hydroxypentanoic acid, sodium S-3-hydroxypentanoate, mixture of S-3-hydroxypentanoic acid and sodium S-3-hydroxypentanoate, and S-3-hydroxypentanoic acid·sodium S-3-hydroxypentanoate complex of Example 67, […]
For the molecule `C[C@@H](O)CC(=O)O.C[C@@H](O)CC(=O)[O-].C[C@@H](O)CC(=O)[O-].[Ca+2]` [R-3-hydroxybutyric acid·calcium R-3-hydroxybutyrate], the Stability result was “unchanged”.

Take `C[C@@H](O)CC(=O)O.C[C@@H](O)CC(=O)[O-].C[C@@H](O)CC(=O)[O-].[Mg+2]` [R-3-hydroxybutyric acid·magnesium R-3-hydroxybutyrate]: the Stability entry is listed as “unchanged”.

Still in this data set, the particulars now being: 40° C.
Take `C[C@@H](O)CC(=O)O.C[C@@H](O)CC(=O)[O-].C[C@@H](O)CC(=O)[O-].[Ca+2]` [R-3-hydroxybutyric acid·calcium R-3-hydroxybutyrate]: the Stability result is “unchanged”.

As to `C[C@@H](O)CC(=O)O.C[C@@H](O)CC(=O)[O-].C[C@@H](O)CC(=O)[O-].[Mg+2]` [R-3-hydroxybutyric acid·magnesium R-3-hydroxybutyrate], the Stability result is on record as “unchanged”.

The same data set, now with this note: 50° C.
Regarding `C[C@@H](O)CC(=O)O.C[C@@H](O)CC(=O)[O-].C[C@@H](O)CC(=O)[O-].[Ca+2]` [R-3-hydroxybutyric acid·calcium R-3-hydroxybutyrate], the Stability result is “unchanged”.

`C[C@@H](O)CC(=O)O.C[C@@H](O)CC(=O)[O-].C[C@@H](O)CC(=O)[O-].[Mg+2]` [R-3-hydroxybutyric acid·magnesium R-3-hydroxybutyrate]: the Stability result is reported as “unchanged”.

Staying with this data set, now noted: 60° C.
With `C[C@@H](O)CC(=O)O.C[C@@H](O)CC(=O)[O-].C[C@@H](O)CC(=O)[O-].[Ca+2]` [R-3-hydroxybutyric acid·calcium R-3-hydroxybutyrate], the Stability entry is given as “unchanged”.

For the molecule `C[C@@H](O)CC(=O)O.C[C@@H](O)CC(=O)[O-].C[C@@H](O)CC(=O)[O-].[Mg+2]` [R-3-hydroxybutyric acid·magnesium R-3-hydroxybutyrate], the Stability result is “unchanged”.

Still in this data set, the particulars now being: 80° C.
In the case of `C[C@@H](O)CC(=O)O.C[C@@H](O)CC(=O)[O-].C[C@@H](O)CC(=O)[O-].[Ca+2]` [R-3-hydroxybutyric acid·calcium R-3-hydroxybutyrate], the Stability result was “melted”.

`C[C@@H](O)CC(=O)O.C[C@@H](O)CC(=O)[O-].C[C@@H](O)CC(=O)[O-].[Mg+2]` [R-3-hydroxybutyric acid·magnesium R-3-hydroxybutyrate]: the Stability entry is reported as “melted”.

The next data set can be described thus: Determination of moisture contents with KF moisture meter at different time points. In kind it is physicochemical. The following applies: temperature 23° C., humidity 92.5%, 30 min. The text has this:
For R-3-hydroxybutyric acid, potassium R-3-hydroxybutyrate, mixture of R-3-hydroxybutyric acid and potassium R-3-hydroxybutyrate, and R-3-hydroxybutyric acid·potassium R-3-hydroxybutyrate complex of Example 1, under a certain condition, KF moisture meter was used to determine the moisture contents at different time points.
For 3-hydroxybutyric acid, potassium 3-hydroxybutyrate, mixture of 3-hydroxybutyric acid and potassium 3-hydroxybutyrate, and 3-hydroxybutyric acid·potassium 3-hydroxybutyrate complex of Example 7, under a certain condition, KF moisture meter was used to determine the moisture contents at different time points.
For S-3-hydroxybutyric acid, potassium S-3-hydroxybutyrate, mixture of S-3-hydroxybutyric acid and potassium S-3-hydroxybutyrate, and S-3-hydroxybutyric acid·potassium S-3-hydroxybutyrate complex of Example 13, under a certain condition, KF moisture meter was used to determine the moisture contents at different time points.
For R-3-hydroxybutyric acid, calcium R-3-hydroxybutyrate, mixture of R-3-hydroxybutyric acid and calcium R-3-hydroxybutyrate, and R-3-hydroxybutyric acid·calcium R-3-hydroxybutyrate complex of Example 19, under a certain condition, KF moisture meter was used to determine the moisture contents at different time points.
For 3-hydroxybutyric acid, calcium 3-hydroxybutyrate, mixture of 3-hydroxybutyric acid and calcium 3-hydroxybutyrate, and 3-hydroxybutyric acid·calcium 3-hydroxybutyrate complex of Example 25, under a certain condition, KF moisture meter was used to determine the moisture contents at different time points.
For S-3-hydroxybutyric acid, calcium S-3-hydroxybutyrate, mixture of S-3-hydroxybutyric acid and calcium S-3-hydroxybutyrate, and S-3-hydroxybutyric acid·calcium S-3-hydroxybutyrate complex of Example 31, under a certain condition, KF moisture meter was used to determine the moisture contents at different time points.
For R-3-hydroxybutyric acid, magnesium R-3-hydroxybutyrate, mixture of R-3-hydroxybutyric acid and magnesium R-3-hydroxybutyrate, and R-3-hydroxybutyric acid·magnesium R-3-hydroxybutyrate complex of Example 37, under a certain condition, KF moisture meter was used to determine the moisture contents at different time points.
For 3-hydroxybutyric acid, magnesium 3-hydroxybutyrate, mixture of 3-hydroxybutyric acid and magnesium 3-hydroxybutyrate, and 3-hydroxybutyric acid·magnesium 3-hydroxy butyrate complex of Example 43, under a certain condition, KF moisture meter was used to determine the moisture contents at different time points.
For S-3-hydroxybutyric acid, magnesium S-3-hydroxybutyrate, mixture of S-3-hydroxybutyric acid and magnesium S-3-hydroxybutyrate, and S-3-hydroxybutyric acid·magnesium S-3-hydroxybutyrate complex of Example 49, under a certain condition, KF moisture meter was used to determine the moisture contents at different time points.
For R-3-hydroxypentanoic acid, sodium R-3-hydroxypentanoate, mixture of R-3-hydroxypentanoic acid and sodium R-3-hydroxypentanoate, and R-3-hydroxypentanoic acid·sodium R-3-hydroxypentanoate complex of Example 55, under a certain condition, KF moisture meter was used to determine the moisture contents at different time points.
For 3-hydroxypentanoic acid, sodium 3-hydroxypentanoate, mixture of 3-hydroxypentanoic acid and sodium 3-hydroxypentanoate, and 3-hydroxypentanoic acid·sodium 3-hydroxypentanoate complex of Example 61, under a certain condition, KF moisture meter was used to determine the moisture contents at different time points.
For S-3-hydroxypentanoic acid, sodium S-3-hydroxypentanoate, mixture of S-3-hydroxypentanoic acid and sodium S-3-hydroxypentanoate, and S-3-hydroxypentanoic acid·sodium S-3-hydroxypentanoate complex of Example 67, under a certain condition, KF moisture meter was used to determine the moisture contents at different time points.
Take `C[C@@H](O)CC(=O)O.C[C@@H](O)CC(=O)[O-].C[C@@H](O)CC(=O)[O-].[Ca+2]` [R-3-hydroxybutyric acid·calcium R-3-hydroxybutyrate]: the “moisture content (%)” value is on record as 0.54%.

Regarding `C[C@@H](O)CC(=O)O.C[C@@H](O)CC(=O)[O-].C[C@@H](O)CC(=O)[O-].[Mg+2]` [R-3-hydroxybutyric acid·magnesium R-3-hydroxybutyrate], the “moisture content (%)” value is 0.57%.

The data set is the same for the next values; noted with them: temperature 23° C., humidity 92.5%, 1 h.
As to `C[C@@H](O)CC(=O)O.C[C@@H](O)CC(=O)[O-].C[C@@H](O)CC(=O)[O-].[Ca+2]` [R-3-hydroxybutyric acid·calcium R-3-hydroxybutyrate], the “moisture content (%)” value amounted to 1.02%.

In the case of `C[C@@H](O)CC(=O)O.C[C@@H](O)CC(=O)[O-].C[C@@H](O)CC(=O)[O-].[Mg+2]` [R-3-hydroxybutyric acid·magnesium R-3-hydroxybutyrate], the “moisture content (%)” value is given as 0.92%.

The data set is the same for the next values; noted with them: temperature 23° C., humidity 92.5%, 2 h.
On to `C[C@@H](O)CC(=O)O.C[C@@H](O)CC(=O)[O-].C[C@@H](O)CC(=O)[O-].[Ca+2]` [R-3-hydroxybutyric acid·calcium R-3-hydroxybutyrate], for which the “moisture content (%)” value is reported as 1.96%.

Turning to `C[C@@H](O)CC(=O)O.C[C@@H](O)CC(=O)[O-].C[C@@H](O)CC(=O)[O-].[Mg+2]` [R-3-hydroxybutyric acid·magnesium R-3-hydroxybutyrate], the “moisture content (%)” value came to 1.76%.

The same data set, now with this note: temperature 23° C., humidity 92.5%, 4 h.
Take `C[C@@H](O)CC(=O)O.C[C@@H](O)CC(=O)[O-].C[C@@H](O)CC(=O)[O-].[Ca+2]` [R-3-hydroxybutyric acid·calcium R-3-hydroxybutyrate]: the “moisture content (%)” value is recorded as 3.26%.

In the case of `C[C@@H](O)CC(=O)O.C[C@@H](O)CC(=O)[O-].C[C@@H](O)CC(=O)[O-].[Mg+2]` [R-3-hydroxybutyric acid·magnesium R-3-hydroxybutyrate], the “moisture content (%)” value is 3.16%.

Still in this data set, the particulars now being: temperature 23° C., humidity 92.5%, 6 h.
For `C[C@@H](O)CC(=O)O.C[C@@H](O)CC(=O)[O-].C[C@@H](O)CC(=O)[O-].[Ca+2]` [R-3-hydroxybutyric acid·calcium R-3-hydroxybutyrate], the “moisture content (%)” value is listed as 4.79%.

`C[C@@H](O)CC(=O)O.C[C@@H](O)CC(=O)[O-].C[C@@H](O)CC(=O)[O-].[Mg+2]` [R-3-hydroxybutyric acid·magnesium R-3-hydroxybutyrate]: the “moisture content (%)” value is given as 4.59%.

The data set is the same for the next values; noted with them: temperature 23° C., humidity 92.5%, 7 h.
Regarding `C[C@@H](O)CC(=O)O.C[C@@H](O)CC(=O)[O-].C[C@@H](O)CC(=O)[O-].[Ca+2]` [R-3-hydroxybutyric acid·calcium R-3-hydroxybutyrate], the “moisture content (%)” value amounted to 5.39%.

For the molecule `C[C@@H](O)CC(=O)O.C[C@@H](O)CC(=O)[O-].C[C@@H](O)CC(=O)[O-].[Mg+2]` [R-3-hydroxybutyric acid·magnesium R-3-hydroxybutyrate], the “moisture content (%)” value is given as 5.69%.

Staying with this data set, now noted: temperature 23° C., humidity 92.5%, 11 h.
Consider `C[C@@H](O)CC(=O)O.C[C@@H](O)CC(=O)[O-].C[C@@H](O)CC(=O)[O-].[Ca+2]` [R-3-hydroxybutyric acid·calcium R-3-hydroxybutyrate], for which the “moisture content (%)” value was 8.65%.

As for `C[C@@H](O)CC(=O)O.C[C@@H](O)CC(=O)[O-].C[C@@H](O)CC(=O)[O-].[Mg+2]` [R-3-hydroxybutyric acid·magnesium R-3-hydroxybutyrate], the “moisture content (%)” value came to 8.65%.

Still in this data set, the particulars now being: temperature 23° C., humidity 92.5%, 22 h.
As for `C[C@@H](O)CC(=O)O.C[C@@H](O)CC(=O)[O-].C[C@@H](O)CC(=O)[O-].[Ca+2]` [R-3-hydroxybutyric acid·calcium R-3-hydroxybutyrate], the “moisture content (%)” value turned out to be 14.45%.

Take `C[C@@H](O)CC(=O)O.C[C@@H](O)CC(=O)[O-].C[C@@H](O)CC(=O)[O-].[Mg+2]` [R-3-hydroxybutyric acid·magnesium R-3-hydroxybutyrate]: the “moisture content (%)” value is 14.45%.
